# What was measured:
# Ephrin type-A receptor 4 = Ephrin type-A receptor 4 (Homo sapiens, UniProt P54764); test: Induction of stabilization of recombinant EPHA4 (unknown origin) assessed as change in melting temperature by differential scanning fluorimetry assay
# [1] = molecular target: Vascular endothelial growth factor receptor 1 (Homo sapiens, UniProt P17948); test: Induction of stabilization of recombinant FLT1 (unknown origin) assessed as change in melting temperature by differential scanning fluorimetry assay
# [2] = molecular target: Fibroblast growth factor receptor 1 (Homo sapiens, UniProt P11362)
# Description: Induction of stabilization of recombinant FGFR1 (unknown origin) assessed as change in melting temperature by differential scanning fluorimetry assay
# [3] = molecular target: T1, Cyclin-G-associated kinase (Homo sapiens) (UniProt O14976)
# T1 sequence (whole entry): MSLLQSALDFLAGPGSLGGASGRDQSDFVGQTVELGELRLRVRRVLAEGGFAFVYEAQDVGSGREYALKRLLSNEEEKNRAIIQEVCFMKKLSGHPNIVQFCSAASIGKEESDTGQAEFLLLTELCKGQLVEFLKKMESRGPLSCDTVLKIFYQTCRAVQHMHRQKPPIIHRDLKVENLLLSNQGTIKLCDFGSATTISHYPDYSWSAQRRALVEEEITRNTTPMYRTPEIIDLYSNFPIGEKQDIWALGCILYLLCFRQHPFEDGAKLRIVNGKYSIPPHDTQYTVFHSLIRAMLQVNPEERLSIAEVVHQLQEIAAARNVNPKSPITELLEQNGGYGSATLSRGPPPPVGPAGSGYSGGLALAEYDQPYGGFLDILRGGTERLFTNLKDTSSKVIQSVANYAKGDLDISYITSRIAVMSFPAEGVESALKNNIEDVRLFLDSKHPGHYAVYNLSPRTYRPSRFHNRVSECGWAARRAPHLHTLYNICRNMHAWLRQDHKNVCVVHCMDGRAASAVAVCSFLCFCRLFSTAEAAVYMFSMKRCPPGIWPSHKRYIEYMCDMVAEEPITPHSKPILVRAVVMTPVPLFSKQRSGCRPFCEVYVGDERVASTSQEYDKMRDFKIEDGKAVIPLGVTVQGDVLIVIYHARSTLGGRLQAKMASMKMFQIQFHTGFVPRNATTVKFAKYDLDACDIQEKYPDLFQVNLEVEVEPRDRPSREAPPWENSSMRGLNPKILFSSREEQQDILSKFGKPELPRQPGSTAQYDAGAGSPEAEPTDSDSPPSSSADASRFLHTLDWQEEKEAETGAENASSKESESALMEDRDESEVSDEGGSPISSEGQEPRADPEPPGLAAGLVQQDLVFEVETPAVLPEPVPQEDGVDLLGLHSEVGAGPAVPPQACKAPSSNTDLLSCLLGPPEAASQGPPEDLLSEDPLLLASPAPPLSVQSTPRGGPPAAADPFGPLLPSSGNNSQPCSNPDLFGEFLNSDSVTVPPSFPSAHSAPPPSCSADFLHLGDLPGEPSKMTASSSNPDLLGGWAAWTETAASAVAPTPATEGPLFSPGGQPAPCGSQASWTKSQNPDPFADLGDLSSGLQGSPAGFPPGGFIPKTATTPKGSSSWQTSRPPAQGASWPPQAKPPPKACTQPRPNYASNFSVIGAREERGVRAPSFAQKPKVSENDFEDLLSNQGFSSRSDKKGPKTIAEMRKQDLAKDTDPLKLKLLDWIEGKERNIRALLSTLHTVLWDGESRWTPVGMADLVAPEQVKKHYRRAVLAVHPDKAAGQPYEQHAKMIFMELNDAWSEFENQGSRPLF
# Description: Induction of stabilization of recombinant GAK (unknown origin) assessed as change in melting temperature by differential scanning fluorimetry assay
# [4] = molecular target: Fibroblast growth factor receptor 2 (Homo sapiens) (UniProt P21802)
# Description: Induction of stabilization of recombinant FGFR2 (unknown origin) assessed as change in melting temperature by differential scanning fluorimetry assay
# [5] = molecular target: T2, Ephrin type-B receptor 3 (Homo sapiens) (UniProt P54753); test: Induction of stabilization of recombinant EPHB3 (unknown origin) assessed as change in melting temperature by differential scanning fluorimetry assay
# T2 sequence (whole entry): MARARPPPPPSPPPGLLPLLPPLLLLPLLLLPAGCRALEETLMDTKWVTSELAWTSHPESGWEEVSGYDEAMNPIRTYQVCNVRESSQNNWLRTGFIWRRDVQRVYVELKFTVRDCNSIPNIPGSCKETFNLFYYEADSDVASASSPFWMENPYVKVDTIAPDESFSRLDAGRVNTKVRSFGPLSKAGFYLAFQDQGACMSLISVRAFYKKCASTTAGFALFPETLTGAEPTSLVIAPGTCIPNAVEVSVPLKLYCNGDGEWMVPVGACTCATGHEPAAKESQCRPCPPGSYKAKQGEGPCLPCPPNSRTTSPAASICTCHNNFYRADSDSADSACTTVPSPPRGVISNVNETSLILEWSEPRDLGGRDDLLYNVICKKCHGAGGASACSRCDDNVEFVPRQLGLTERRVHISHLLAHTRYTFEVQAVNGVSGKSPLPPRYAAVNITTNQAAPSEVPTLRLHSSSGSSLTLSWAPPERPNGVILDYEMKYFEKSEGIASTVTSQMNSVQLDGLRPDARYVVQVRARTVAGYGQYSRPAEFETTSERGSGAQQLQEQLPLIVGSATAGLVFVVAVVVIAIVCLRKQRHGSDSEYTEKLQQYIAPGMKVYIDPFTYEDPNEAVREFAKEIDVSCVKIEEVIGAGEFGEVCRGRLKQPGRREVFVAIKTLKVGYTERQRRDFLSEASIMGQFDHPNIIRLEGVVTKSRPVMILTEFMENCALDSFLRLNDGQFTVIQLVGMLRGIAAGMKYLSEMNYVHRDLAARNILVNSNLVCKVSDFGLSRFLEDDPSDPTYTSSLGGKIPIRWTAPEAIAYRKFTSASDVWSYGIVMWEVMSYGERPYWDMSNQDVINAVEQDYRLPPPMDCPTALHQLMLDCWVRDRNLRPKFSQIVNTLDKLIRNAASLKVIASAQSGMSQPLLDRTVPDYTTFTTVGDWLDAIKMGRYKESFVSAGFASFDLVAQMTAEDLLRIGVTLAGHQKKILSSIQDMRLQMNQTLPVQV
# [6] = molecular target: Ephrin type-A receptor 7 (Homo sapiens) (UniProt Q15375); test: Induction of stabilization of recombinant EPHA7 (unknown origin) assessed as change in melting temperature by differential scanning fluorimetry assay
# Ephrin type-A receptor 2 = Ephrin type-A receptor 2 (Homo sapiens, UniProt P29317)
# Description: Induction of stabilization of recombinant EPHA2 (D596 to G900 residues) (unknown origin) expressed in Escherichia coli rosetta BL21(D3)-R3-pRARE2 competent cells assessed as change in melting temperature by differential scanning fluorimetry assay
# [7] = molecular target: Ephrin type-A receptor 5 (Homo sapiens) (UniProt P54756)
# Description: Induction of stabilization of recombinant EPHA5 (unknown origin) assessed as change in melting temperature by differential scanning fluorimetry assay
# [8] = molecular target: T3, Ephrin type-B receptor 1 (Homo sapiens) (UniProt P54762); test: Induction of stabilization of recombinant EPHB1 (unknown origin) assessed as change in melting temperature by differential scanning fluorimetry assay
# T3 sequence (whole entry): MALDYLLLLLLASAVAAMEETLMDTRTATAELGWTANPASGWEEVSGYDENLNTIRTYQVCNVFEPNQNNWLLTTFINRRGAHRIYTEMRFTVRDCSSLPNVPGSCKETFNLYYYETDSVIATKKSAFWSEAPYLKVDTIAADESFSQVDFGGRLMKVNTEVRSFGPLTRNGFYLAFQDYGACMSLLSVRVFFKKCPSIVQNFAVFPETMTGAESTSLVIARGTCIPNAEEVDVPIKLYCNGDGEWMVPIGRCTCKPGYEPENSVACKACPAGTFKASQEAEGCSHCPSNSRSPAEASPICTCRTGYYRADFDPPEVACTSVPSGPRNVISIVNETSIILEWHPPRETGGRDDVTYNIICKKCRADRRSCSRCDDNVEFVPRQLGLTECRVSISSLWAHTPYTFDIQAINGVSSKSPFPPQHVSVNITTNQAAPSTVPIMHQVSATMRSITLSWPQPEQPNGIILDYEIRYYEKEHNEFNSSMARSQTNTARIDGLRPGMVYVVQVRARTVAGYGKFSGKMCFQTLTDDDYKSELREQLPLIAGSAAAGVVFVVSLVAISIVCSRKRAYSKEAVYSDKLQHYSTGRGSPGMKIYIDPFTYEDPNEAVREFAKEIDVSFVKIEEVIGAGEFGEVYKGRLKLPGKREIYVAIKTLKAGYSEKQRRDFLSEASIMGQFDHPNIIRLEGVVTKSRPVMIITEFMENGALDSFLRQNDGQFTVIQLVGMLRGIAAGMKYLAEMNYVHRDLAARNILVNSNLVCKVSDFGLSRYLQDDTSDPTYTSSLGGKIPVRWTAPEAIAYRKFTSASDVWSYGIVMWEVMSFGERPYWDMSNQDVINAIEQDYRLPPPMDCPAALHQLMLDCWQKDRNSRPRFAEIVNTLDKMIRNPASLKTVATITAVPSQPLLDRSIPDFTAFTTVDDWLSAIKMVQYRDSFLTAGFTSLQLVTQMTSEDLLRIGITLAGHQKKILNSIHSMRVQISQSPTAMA
# Sequence of Vascular endothelial growth factor receptor 1 (P17948 whole entry): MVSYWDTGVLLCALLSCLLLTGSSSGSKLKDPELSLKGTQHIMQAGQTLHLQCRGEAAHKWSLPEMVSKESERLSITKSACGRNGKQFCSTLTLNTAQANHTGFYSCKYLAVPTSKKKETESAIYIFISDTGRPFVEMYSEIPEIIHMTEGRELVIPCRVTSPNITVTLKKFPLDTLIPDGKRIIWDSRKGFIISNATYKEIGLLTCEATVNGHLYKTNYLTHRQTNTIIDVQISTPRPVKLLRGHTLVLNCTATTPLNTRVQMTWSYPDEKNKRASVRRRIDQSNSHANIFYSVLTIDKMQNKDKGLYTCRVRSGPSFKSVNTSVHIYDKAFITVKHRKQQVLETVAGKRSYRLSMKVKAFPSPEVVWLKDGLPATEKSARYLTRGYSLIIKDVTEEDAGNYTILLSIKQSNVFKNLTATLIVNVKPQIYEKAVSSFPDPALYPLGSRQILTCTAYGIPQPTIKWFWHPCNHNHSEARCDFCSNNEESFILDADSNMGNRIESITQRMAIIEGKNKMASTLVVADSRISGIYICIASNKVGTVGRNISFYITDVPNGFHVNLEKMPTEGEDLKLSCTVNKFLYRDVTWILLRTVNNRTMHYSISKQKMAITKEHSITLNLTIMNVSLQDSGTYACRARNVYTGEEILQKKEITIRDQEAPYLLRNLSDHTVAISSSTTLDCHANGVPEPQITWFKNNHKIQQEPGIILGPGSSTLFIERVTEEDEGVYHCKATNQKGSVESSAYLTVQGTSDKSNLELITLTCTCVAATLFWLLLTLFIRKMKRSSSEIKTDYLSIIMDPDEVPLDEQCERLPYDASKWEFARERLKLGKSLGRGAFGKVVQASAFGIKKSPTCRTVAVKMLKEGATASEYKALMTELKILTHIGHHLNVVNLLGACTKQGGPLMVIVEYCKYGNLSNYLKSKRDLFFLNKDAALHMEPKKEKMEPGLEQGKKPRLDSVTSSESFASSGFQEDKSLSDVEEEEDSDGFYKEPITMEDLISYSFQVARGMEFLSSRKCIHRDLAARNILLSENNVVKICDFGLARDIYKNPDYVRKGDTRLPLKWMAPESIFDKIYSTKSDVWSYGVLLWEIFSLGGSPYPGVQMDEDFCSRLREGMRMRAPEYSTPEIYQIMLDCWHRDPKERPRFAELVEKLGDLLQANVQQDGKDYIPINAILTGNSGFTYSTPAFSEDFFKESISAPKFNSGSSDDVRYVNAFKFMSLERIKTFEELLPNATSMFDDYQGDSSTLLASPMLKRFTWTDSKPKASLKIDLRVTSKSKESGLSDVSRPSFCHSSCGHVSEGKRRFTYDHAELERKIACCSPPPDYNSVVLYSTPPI
# Sequence of Ephrin type-A receptor 4 (P54764 whole entry): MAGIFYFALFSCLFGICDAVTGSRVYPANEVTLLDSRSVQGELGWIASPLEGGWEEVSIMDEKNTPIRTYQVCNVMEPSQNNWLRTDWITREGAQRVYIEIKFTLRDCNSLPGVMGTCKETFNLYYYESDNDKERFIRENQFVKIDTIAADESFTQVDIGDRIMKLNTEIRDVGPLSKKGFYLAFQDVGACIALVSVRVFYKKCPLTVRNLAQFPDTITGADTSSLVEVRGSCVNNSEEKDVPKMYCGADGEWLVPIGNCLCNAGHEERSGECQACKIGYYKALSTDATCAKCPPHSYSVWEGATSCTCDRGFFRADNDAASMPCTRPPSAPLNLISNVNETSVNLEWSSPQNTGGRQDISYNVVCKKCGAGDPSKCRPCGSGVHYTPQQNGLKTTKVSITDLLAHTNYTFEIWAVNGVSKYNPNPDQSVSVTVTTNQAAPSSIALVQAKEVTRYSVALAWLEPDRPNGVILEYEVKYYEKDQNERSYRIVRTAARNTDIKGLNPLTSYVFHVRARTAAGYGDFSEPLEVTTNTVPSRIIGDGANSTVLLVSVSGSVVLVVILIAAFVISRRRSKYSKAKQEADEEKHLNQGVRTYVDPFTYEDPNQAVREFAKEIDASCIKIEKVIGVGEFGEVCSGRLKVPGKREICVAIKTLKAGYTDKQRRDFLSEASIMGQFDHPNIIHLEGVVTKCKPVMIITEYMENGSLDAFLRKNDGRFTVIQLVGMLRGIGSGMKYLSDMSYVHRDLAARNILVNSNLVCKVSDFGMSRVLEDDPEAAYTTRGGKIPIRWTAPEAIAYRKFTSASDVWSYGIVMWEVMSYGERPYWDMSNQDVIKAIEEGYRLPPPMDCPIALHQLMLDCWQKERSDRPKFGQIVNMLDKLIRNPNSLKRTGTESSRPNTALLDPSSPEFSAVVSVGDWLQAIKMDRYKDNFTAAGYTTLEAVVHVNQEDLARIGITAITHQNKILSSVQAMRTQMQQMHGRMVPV
# Sequence of Ephrin type-A receptor 7 (Homo sapiens) (Q15375 28-998 limits assumed): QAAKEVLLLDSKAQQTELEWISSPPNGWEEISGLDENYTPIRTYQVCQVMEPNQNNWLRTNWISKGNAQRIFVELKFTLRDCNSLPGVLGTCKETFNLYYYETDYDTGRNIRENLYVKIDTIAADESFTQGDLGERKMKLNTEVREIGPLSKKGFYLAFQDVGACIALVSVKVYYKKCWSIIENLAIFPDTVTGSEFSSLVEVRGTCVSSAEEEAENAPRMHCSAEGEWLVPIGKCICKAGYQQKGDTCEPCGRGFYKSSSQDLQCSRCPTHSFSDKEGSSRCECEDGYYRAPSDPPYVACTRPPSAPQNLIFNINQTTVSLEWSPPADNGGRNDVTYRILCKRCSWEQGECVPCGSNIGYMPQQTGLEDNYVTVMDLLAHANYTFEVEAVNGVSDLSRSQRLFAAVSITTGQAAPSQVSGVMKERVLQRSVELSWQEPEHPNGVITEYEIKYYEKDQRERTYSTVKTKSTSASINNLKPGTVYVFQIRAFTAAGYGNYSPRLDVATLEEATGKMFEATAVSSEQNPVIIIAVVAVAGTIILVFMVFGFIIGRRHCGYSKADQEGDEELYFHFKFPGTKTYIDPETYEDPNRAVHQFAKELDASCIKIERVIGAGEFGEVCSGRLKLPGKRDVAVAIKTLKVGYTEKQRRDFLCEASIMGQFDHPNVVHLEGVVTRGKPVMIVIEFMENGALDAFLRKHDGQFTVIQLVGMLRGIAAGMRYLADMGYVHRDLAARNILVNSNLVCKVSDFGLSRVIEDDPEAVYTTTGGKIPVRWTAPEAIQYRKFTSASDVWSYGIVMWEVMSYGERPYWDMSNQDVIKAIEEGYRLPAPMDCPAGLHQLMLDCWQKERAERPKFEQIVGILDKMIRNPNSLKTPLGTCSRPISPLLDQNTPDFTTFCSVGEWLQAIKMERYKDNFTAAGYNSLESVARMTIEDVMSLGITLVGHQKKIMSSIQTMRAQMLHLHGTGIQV
# Sequence of Ephrin type-A receptor 2 (P29317 whole entry): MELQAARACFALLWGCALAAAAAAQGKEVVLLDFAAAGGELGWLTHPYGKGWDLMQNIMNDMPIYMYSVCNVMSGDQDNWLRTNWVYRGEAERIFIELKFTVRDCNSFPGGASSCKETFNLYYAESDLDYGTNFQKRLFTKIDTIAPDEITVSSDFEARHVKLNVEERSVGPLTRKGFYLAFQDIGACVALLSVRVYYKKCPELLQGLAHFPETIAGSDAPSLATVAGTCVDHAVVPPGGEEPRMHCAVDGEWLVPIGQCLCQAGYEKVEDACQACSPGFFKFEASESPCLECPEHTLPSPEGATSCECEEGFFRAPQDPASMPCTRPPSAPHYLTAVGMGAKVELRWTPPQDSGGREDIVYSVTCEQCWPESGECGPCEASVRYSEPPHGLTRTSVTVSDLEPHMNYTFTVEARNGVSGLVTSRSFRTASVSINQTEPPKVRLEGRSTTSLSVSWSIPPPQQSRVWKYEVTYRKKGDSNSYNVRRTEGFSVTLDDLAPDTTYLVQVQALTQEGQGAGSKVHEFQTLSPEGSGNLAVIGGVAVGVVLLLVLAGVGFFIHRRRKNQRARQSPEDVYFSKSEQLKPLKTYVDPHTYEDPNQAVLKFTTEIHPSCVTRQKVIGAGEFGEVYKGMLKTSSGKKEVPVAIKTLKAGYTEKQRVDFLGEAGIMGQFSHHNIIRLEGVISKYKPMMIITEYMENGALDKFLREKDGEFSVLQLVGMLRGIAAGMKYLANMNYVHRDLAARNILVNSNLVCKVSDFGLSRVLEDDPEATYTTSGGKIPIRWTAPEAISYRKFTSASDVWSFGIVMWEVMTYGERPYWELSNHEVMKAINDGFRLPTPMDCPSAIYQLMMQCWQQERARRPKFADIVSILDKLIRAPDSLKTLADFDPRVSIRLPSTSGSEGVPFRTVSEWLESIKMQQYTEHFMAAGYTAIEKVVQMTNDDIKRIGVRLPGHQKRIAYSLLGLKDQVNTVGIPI
# Sequence of Fibroblast growth factor receptor 1 (P11362 22-822 limits assumed): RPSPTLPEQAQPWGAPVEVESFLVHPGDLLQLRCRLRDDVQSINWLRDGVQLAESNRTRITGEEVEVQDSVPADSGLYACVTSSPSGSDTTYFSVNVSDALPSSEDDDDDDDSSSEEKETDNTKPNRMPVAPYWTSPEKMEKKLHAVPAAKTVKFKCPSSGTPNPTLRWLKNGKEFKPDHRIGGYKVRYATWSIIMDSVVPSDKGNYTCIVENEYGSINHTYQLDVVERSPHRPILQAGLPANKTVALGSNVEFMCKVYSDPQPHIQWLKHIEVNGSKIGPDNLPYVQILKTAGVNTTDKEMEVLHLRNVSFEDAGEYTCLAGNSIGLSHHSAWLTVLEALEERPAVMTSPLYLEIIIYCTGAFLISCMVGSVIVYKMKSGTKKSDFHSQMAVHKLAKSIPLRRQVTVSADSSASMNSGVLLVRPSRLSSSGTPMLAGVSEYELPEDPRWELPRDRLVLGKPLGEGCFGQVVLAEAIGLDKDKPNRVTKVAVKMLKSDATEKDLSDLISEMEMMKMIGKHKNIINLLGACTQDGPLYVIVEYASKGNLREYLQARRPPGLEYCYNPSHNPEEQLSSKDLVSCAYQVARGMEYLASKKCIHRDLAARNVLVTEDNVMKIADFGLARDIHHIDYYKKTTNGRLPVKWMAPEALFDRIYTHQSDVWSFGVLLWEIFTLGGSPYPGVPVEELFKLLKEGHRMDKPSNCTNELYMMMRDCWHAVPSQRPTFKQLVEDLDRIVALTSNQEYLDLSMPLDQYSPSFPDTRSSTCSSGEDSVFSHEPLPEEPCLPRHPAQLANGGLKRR
SMILES,deltaTm (Ephrin type-A receptor 4) [K],deltaTm [1] [K],deltaTm [2] [K],deltaTm [3] [K],deltaTm [4] [K],deltaTm [5] [K],deltaTm [6] [K],deltaTm (Ephrin type-A receptor 2) [K],deltaTm [7] [K],deltaTm [8] [K]
COc1cc(-c2cnc3nc2NCCCNS(=O)(=O)c2cc(ccc2-c2ccc(O)cc2)N3)ccc1F,5.3,3.6,3.1,3.6,4,6,2.9,9.8,6.7,4.3
COc1cc(-c2cnc3nc2NCCCNS(=O)(=O)c2cc(ccc2OCC(N)=O)N3)ccc1F,2.3,0.8,0.7,6.3,1.5,2.5,0.7,3.5,3.9,1.5
COc1cc(-c2cnc3nc2NCCCNS(=O)(=O)c2cc(ccc2Cl)N3)ccc1F,5.1,2.4,1.9,8.1,3.6,1.6,1.6,6.3,5,2.5
O=S1(=O)NCCCNc2nc(ncc2-c2cccc(Cl)c2F)Nc2cccc1c2,3.4,6,4,5.3,5.3,3.7,1.8,7,4.6,3.1
COc1cc(-c2cnc3nc2NCCCNS(=O)(=O)c2cc(ccc2C)N3)ccc1F,3.6,-1.3,2.7,6.4,3,6.1,2,7.6,5.5,4.2
O=S1(=O)NCCCNc2nc(ncc2-c2ccc(F)c(C(F)(F)F)c2)Nc2cccc1c2,0.7,1.8,1.3,3.1,2.1,0.6,0.9,3,1.6,0.6
COc1cc(-c2cnc3nc2NCCCNS(=O)(=O)c2cccc(c2)N3)ccc1Cl,4.1,5.2,3.3,7.1,3.8,4.7,2.1,7.7,4.9,0.9
CN[C@@H]1C[C@H]2O[C@@](C)([C@@H]1OC)n1c3ccccc3c3c4c(c5c6ccccc6n2c5c31)C(=O)NC4,6.2,10.2,–,–,–,6.1,–,6.4,–,6.4
COC(=O)c1cc(-c2cnc3nc2NCCCNS(=O)(=O)c2cccc(c2)N3)ccc1F,-0.6,6.4,3.5,-1.3,3.1,1.5,-2.8,2.1,-0.7,1.3
COc1cc(-c2cnc3nc2NCCCNS(=O)(=O)c2cc(ccc2OCCN2CCOCC2)N3)ccc1F,3.7,3,2.1,9,3.2,4.8,1,6.9,4.6,4.2
COc1cc(-c2cnc3nc2NCCCNS(=O)(=O)c2cccc(c2)N3)cc(C(F)(F)F)c1,0.8,5.3,4.9,3.3,5.8,1.1,1.4,1.8,1.3,0.9
COc1cc(-c2cnc3nc2NCCCNS(=O)(=O)c2cccc(c2)N3)c(F)cc1Cl,4.7,3,2.7,9.3,3.4,5.8,0.4,9.8,6,4.9
O=S1(=O)NCCCNc2nc(ncc2Br)Nc2cccc1c2,–,–,–,4.9,–,–,–,6.7,–,–

# Reference: ChEMBL document CHEMBL5550200, “Back-Pocket Optimization of 2-Aminopyrimidine-Based Macrocycles Leads to Potent EPHA2/GAK Kinase Inhibitors” (J Med Chem, 2024)
